What was measured:
[1] = molecular target: T1, human M1 receptor (hCHRM1) (Homo sapiens, UniProt P11229); experiment: Measurement of M1 receptor positive allosteric modulator (M1PAM) activity, calcium fluorescence in CHO-K1 cells; format: cell-based; details: for activity (%) at 10 μM: 10 μM test compound, 100% = acetylcholine final concentration 1 μM, 0% = DMSO; for EC50: inflection point of concentration-dependent curve, in the presence of acetylcholine at EC20 concentration (final 0.8-1.0 nM), read-out: IP value
T1 construct: expressed in transfected cells
T1 sequence (P11229 1-460): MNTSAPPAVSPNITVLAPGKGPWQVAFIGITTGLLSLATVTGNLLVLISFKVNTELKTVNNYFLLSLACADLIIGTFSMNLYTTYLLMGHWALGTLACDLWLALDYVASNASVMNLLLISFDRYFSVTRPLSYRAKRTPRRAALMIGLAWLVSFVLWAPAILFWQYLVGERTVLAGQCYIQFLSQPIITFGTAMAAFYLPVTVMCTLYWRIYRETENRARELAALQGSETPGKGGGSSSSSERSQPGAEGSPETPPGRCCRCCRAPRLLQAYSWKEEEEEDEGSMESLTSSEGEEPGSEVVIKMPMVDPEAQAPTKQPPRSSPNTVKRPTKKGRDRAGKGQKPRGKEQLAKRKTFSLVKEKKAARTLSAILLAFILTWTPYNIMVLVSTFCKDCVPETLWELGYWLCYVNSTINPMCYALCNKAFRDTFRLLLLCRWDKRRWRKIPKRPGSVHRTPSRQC
Procedure: Measurement of M1 Receptor Positive Allosteric Modulator (M1PAM) Activity
The activity of a test compound in the presence of acetylcholine at EC20 concentration (final concentration 0.8-1.0 nM), which affords an action corresponding to about 20% of the maximum activity, was measured as PAM activity. The method is as follows. CHO-K1 cells stably expressing a human M1 receptor (hCHRM1) were plated on a 384-well black clear bottom plate (BD Falcon) at 5,000 cells/well, and cultured in an incubator at 37° C., 5% CO2 for 1 day. The medium in the cell plate was removed, and assay buffer A containing calcium indicator (Recording medium (DOJINDO LABORATORIES), 0.1% BSA (Wako Pure Chemical Industries, Ltd.), 2.5 μg/mL Fluo-4 AM (DOJINDO LABORATORIES), 0.08% Pluronic F127 (DOJINDO LABORATORIES), 1.25 mM probenecid (DOJINDO LABORATORIES)) was added at 30 μL/well. The cells were left standing in the incubator at 37° C., 5% CO2 for 30 min, and further left standing at room temperature for 30 min. A test compound prepared by diluting with assay buffer B (HBSS (Invitrogen), 20 mM HEPES (Invitrogen), 0.1% BSA) containing 3.2-4.0 nM acetylcholine was added at 10 μL/well, and the fluorescence was measured by FDSS/pCELL (Hamamatsu Photonics K.K.) for 1 min every for 1 second. With the definition that the amount of change in the fluorescence on addition of acetylcholine (final concentration 1 μM) is 100% and that on addition of DMSO instead of a test compound is 0%, the activity (%) of the test compound was calculated, and the inflection point in the concentration-dependent curve of the test compound was calculated as IP values.

MDR1 = molecular target: T2, MDR1 (Homo sapiens, UniProt P08183); experiment: MDR1 membrane permeability test; format: in vitro ADME; details: pH 7.4, efflux ratio (ER), Papp B to A / A to B, human MDR1-expressing LLC-PK1 cells, read-out: MDR1 substrate screening 1 μM (MDRSUB1)/Ratio (NUMBER)
T2 construct: expressed in transfected cells
Summary of the method: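 Human MDR1-expressing LLC-PK1 cells were grown for 3 days on 96-well polyethylene terephthalate Transwell supports (0.4 μm pores, 0.143 cm^2) seeded at 3.45×10^4 cells/well. After a 30 min preincubation in M199 medium with 10 mmol/L HEPES and 1% BSA (pH 7.4), drug was added apically or basolaterally. After 1 hr at 37° C, the opposite side was sampled and analyzed by LC-MS/MS. Efflux ratio was calculated from Papp B to A versus A to B.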

T2 sequence (P08183 whole entry): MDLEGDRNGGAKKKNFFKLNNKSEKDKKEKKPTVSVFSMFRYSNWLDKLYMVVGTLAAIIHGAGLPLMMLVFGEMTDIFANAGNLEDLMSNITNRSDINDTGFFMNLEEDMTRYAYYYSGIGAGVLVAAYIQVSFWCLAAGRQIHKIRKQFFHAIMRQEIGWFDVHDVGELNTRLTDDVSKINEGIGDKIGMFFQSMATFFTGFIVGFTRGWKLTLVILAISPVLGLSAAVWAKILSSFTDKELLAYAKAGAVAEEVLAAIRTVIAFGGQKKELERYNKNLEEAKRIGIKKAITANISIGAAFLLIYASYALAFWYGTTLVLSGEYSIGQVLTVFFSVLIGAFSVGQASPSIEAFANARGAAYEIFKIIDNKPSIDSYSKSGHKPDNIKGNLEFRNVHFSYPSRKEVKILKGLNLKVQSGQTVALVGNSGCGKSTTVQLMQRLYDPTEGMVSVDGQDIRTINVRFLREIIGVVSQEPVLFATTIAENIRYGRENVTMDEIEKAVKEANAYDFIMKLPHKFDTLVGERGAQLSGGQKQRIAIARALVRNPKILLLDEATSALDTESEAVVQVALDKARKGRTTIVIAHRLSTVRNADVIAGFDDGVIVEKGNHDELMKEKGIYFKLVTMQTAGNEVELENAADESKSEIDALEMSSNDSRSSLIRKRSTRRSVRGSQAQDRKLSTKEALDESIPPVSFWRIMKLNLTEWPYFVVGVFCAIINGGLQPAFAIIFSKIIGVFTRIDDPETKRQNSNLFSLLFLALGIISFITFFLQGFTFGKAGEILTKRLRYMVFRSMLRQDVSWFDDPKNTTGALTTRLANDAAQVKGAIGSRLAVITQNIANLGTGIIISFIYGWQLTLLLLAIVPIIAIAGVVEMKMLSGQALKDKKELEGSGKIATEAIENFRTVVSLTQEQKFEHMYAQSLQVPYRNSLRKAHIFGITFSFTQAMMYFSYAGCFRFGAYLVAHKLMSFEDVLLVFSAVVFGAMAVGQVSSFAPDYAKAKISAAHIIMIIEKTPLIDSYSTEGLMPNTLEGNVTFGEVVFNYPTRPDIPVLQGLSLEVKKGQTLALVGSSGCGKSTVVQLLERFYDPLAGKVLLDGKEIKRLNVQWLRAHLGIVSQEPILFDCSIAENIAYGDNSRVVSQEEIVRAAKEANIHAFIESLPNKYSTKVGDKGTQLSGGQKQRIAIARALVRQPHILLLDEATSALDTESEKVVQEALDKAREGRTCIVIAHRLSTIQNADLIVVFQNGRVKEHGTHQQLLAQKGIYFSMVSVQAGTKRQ

| activity (%) at 10 μM [1] | EC50 [1] | efflux ratio at 1 hr, 1 μM (MDR1) | SMILES |
| --- | --- | --- | --- |
| 108% | 11 nM | 13 | COC1CN(C(=O)c2ccc(Cc3cc4c(=O)n([C@H]5CCOC[C@@H]5O)cnc4c(C)c3C)cc2)C1 [Example 41, 1,5-anhydro-2,3-dideoxy-3-(6-(4-((3-methoxyazetidin-1-yl)carbonyl)benzyl)-7,8-dimethyl-4-oxoquinazolin-3 (4H)-yl)-L-threo-pentitol] |
| 101% | 1.1 nM | 20 | COCCNC(=O)c1ccc(Cc2cc3c(=O)n([C@H]4CCOC[C@@H]4O)cnc3c(C)c2C)cc1 [Example 49, 1,5-anhydro-2,3-dideoxy-3-(6-(4-((2-methoxyethyl)carbamoyl)benzyl)-7,8-dimethyl-4-oxoquinazolin-3 (4H)-yl)-L-threo-pentitol] |
| 103% | 0.8 nM | 13 | Cc1c(Cc2ccc(C(=O)NCCO)cc2)cc2c(=O)n([C@H]3CCOC[C@@H]3O)cnc2c1C [Example 50, 1,5-anhydro-2,3-dideoxy-3-(6-(4-((2-hydroxyethyl)carbamoyl)benzyl)-7,8-dimethyl-4-oxoquinazolin-3 (4H)-yl)-L-threo-pentitol] |
| 106% | 1.7 nM | 19 | Cc1c(Cc2ccc(C(=O)NCC(=O)N(C)C)c(F)c2)cc2c(=O)n([C@H]3CCOC[C@@H]3O)cnc2c1C [Example 68, 1,5-anhydro-2,3-dideoxy-3-(6-(4-((2-(dimethylamino)-2-oxoethyl)carbamoyl)-3-fluorobenzyl)-7,8-dimethyl-4-oxoquinazolin-3 (4H)-yl)-L-threo-pentitol] |
| 109% | 1.4 nM | 18 | COCCn1cc(-c2ccc(Cc3cc4c(=O)n([C@H]5CCOC[C@@H]5O)cnc4c(C)c3C)cn2)cn1 [Example 73, 1,5-anhydro-2,3-dideoxy-3-(6-((6-(1-(2-methoxyethyl)-1H-pyrazol-4-yl)pyridin-3-yl)methyl)-7,8-dimethyl-4-oxoquinazolin-3(4H)-yl)-L-threo-pentitol] |

More lines, now with the values behind:

| SMILES | activity (%) at 10 μM [1] | EC50 [1] | efflux ratio at 1 hr, 1 μM (MDR1) |
| --- | --- | --- | --- |
| Cc1c(Cc2ccc(-c3cnn(C)c3)nc2)cc2c(=O)n([C@H]3CCOC[C@@H]3O)nnc2c1Cl [Example 54, 1,5-anhydro-3-(8-chloro-7-methyl-6-((6-(1-methyl-1H-pyrazol-4-yl)pyridin-3-yl)methyl)-4-oxo-1,2,3-benzotriazin-3 (4H)-yl)-2,3-dideoxy-L-threo-pentitol] | 106% | 0.99 nM | 9.5 |
| Cc1c(Cc2ccc(-c3cnn(C4CC4)c3)nc2)cc2c(=O)n([C@H]3CCOC[C@@H]3O)cnc2c1C [Example 56, 1,5-anhydro-3-(6-((6-(1-cyclopropyl-1H-pyrazol-4-yl)pyridin-3-yl)methyl)-7,8-dimethyl-4-oxoquinazolin-3 (4H)-yl)-2,3-dideoxy-L-threo-pentitol] | 107% | 2.1 nM | 4.9 |
| COc1cc2ncn([C@H]3CCOC[C@@H]3O)c(=O)c2cc1Cc1ccc(-c2cnn(C)c2)nc1 [Example 58, 1,5-anhydro-2,3-dideoxy-3-(7-methoxy-6-((6-(1-methyl-1H-pyrazol-4-yl)pyridin-3-yl)methyl)-4-oxoquinazolin-3 (4H)-yl)-L-threo-pentitol] | 103% | 1.9 nM | 19 |
| Cc1c(Cc2ccc(-c3ccn(C)n3)nc2)cc2c(=O)n([C@H]3CCOC[C@@H]3O)nnc2c1C [Example 59, 1,5-anhydro-2,3-dideoxy-3-(7,8-dimethyl-6-((6-(1-methyl-1H-pyrazol-3-yl)pyridin-3-yl)methyl)-4-oxo-1,2,3-benzotriazin-3 (4H)-yl)-L-threo-pentitol] | 108% | 2.6 nM | 3.7 |
| COc1cc2ncn([C@H]3CCOC[C@@H]3O)c(=O)c2cc1Cc1ccc(-c2cn(C)cn2)cc1 [Example 61, 1,5-anhydro-2,3-dideoxy-3-(7-methoxy-6-(4-(1-methyl-1H-imidazol-4-yl)benzyl)-4-oxoquinazolin-3 (4H)-yl)-L-threo-pentitol] | 108% | 2.2 nM | 32 |
| Cc1c(Cc2ccc(-c3cn(C)nn3)nc2)cc2c(=O)n([C@H]3CCOC[C@@H]3O)nnc2c1C [Example 62, 1,5-anhydro-2,3-dideoxy-3-(7,8-dimethyl-6-((6-(1-methyl-1H-1,2,3-triazol-4-yl)pyridin-3-yl)methyl)-4-oxo-1,2,3-benzotriazin-3 (4H)-yl)-L-threo-pentitol] | 107% | 2.5 nM | 9.4 |
| Cc1c(Cc2ccc(C(=O)NC3(C)COC3)c(F)c2)cc2c(=O)n([C@H]3CCOC[C@@H]3O)cnc2c1C [Example 65, 1,5-anhydro-2,3-dideoxy-3-(6-(3-fluoro-4-((3-methyloxetan-3-yl)carbamoyl)benzyl)-7,8-dimethyl-4-oxoquinazolin-3 (4H)-yl)-L-threo-pentitol] | 109% | 3 nM | 15 |
| Cc1c(Cc2ccc(-c3cnn(CC4CC4)c3)nc2)cc2c(=O)n([C@H]3CCOC[C@@H]3O)cnc2c1C [Example 71, 1,5-anhydro-3-(6-((6-(1-(cyclopropylmethyl)-1H-pyrazol-4-yl)pyridin-3-yl)methyl)-7,8-dimethyl-4-oxoquinazolin-3(4H)-yl)-2,3-dideoxy-L-threo-pentitol] | 107% | 2.5 nM | 8 |
| Cc1c(Cc2ccc(-c3cnn(C4CCOCC4)c3)nc2)cc2c(=O)n([C@H]3CCOC[C@@H]3O)cnc2c1C [Example 75, 1,5-anhydro-2,3-dideoxy-3-(7,8-dimethyl-4-oxo-6-((6-(1-(tetrahydro-2H-pyran-4-yl)-1H-pyrazol-4-yl)pyridin-3-yl)methyl)quinazolin-3(4H)-yl)-L-threo-pentitol] | 108% | 3 nM | 13 |
| Cc1c(Cc2ccc(C(=O)NCC3(O)CC3)c(F)c2)cc2c(=O)n([C@H]3CCOC[C@@H]3O)cnc2c1C [Example 76, 1,5-anhydro-2,3-dideoxy-3-(6-(3-fluoro-4-(((1-hydroxycyclopropyl)methyl)-carbamoyl)benzyl)-7,8-dimethyl-4-oxoquinazolin-3 (4H)-yl)-L-threo-pentitol] | 106% | 1.9 nM | 15 |
| Cc1c(Cc2ccc(C(=O)NCCN3CCCC3=O)c(F)c2)cc2c(=O)n([C@H]3CCOC[C@@H]3O)cnc2c1C [Example 77, 1,5-anhydro-2,3-dideoxy-3-(6-(3-fluoro-4-((2-(2-oxopyrrolidin-1-yl)ethyl)carbamoyl)benzyl)-7,8-dimethyl-4-oxoquinazolin-3 (4H)-yl)-L-threo-pentitol] | 107% | 2 nM | 32 |
| Cc1c(Cc2ccc(C(=O)NCC3COC3)c(F)c2)cc2c(=O)n([C@H]3CCOC[C@@H]3O)cnc2c1C [Example 79, 1,5-anhydro-2,3-dideoxy-3-(6-(3-fluoro-4-((oxetan-3-ylmethyl)carbamoyl)benzyl)-7,8-dimethyl-4-oxoquinazolin-3 (4H)-yl)-L-threo-pentitol] | 108% | 1.5 nM | 26 |

Source: patent US11560372B2, “Heterocyclic compounds useful as modulators of acetylcholine receptors” (TAKEDA PHARMACEUTICAL COMPANY LIMITED, priority 2017, dated 2023)
